From US4124723A, “Method for suppressing histamine release” (Carter-Wallace, Inc., priority 1977, dated 1978)

Tests used:
[1] = tested on: ragweed-sensitized rabbits; assay: Inhibition of histamine release after oral administration to ragweed-sensitized rabbits (in vivo); settings: 100 mg/kg oral, rabbit, 50 μg antigen N per ml
Method: Five ml of blood was drawn by cardiac puncture from a ragweed-sensitized rabbit to ascertain the basic histamine content of the blood. The amount of histamine released by the addition of 50 μg of antigen N per ml of the assay system was determined. The rabbit was then treated orally with 100 mg/kg of drug using a catheter. One and 5 hr following administration of drug, 5 ml of blood was withdrawn and assayed for histamine by the spectrofluorometric method described by P. A. Shore, A. Burkhalter and V. H. Cohn, Jr., J. PHARMACOL. and EXPTL. THERAP., 127:182, 1959. The percentage inhibition of histamine release was computed from the amount of histamine released before and at 1 and 5 hr following administration of drug.

[2] = tested on: sensitized rabbit leukocytes; assay: Inhibition of histamine release from sensitized rabbit leukocytes (in vitro); assay type: cell-based; settings: for IC50: Oryctolagus cuniculus, Leukocyte, ragweed-sensitized rabbit leukocytes, ragweed antigen, with S.E.M., read-out: ED50 + S.E.M. (molar concentration required to give 50% inhibition of histamine release); for Relative in vitro Inhibition of Histamine Release: relative to chlorphenesin = 1
Method: The procedure published by L. M. Lichtenstein and A. G. Osler, J. EXPTL. MEDICINE, 120:507-530, 1964, for the determination of histamine from human leukocytes, was used to measure histamine release from sensitized rabbit leukocytes. Forty-five ml of blood, drawn by cardiac puncture from ragweed-sensitized rabbits with a plastic syringe containing 250 units of heparin in 5 ml of physiological saline solution, was used. Measurements were made of the total amount of histamine in the leukocytes, the amount of histamine released with the specific antigen (ragweed), the amount of histamine released spontaneously (cell blanks), and the amount of histamine released in the presence of various concratrations of drugs under test.
Appropriate controls for buffer antigen and drugs were included and an internal histamine standard curve was established with each experiment. Inhibition of histamine release was computed from the amount of histamine released by the ragweed antigen in the presence and absence of the drug, i.e., the difference between the quantity of histamine released spontaneously and the amount released by antigen.

human leukocytes = settings: reported by Lichtenstein and Adkinson, J. Immunology 103:866, 1969; cited from earlier work

Row | Structure (SMILES) | percentage inhibition of histamine release ([1]; 5 hrs after drug) | percentage inhibition of histamine release ([1]; one hour after drug) | IC50 [2] [µM] | Relative in vitro Inhibition of Histamine Release [2] | inhibition of histamine release from human leukocytes (human leukocytes)
1 | O=C(O)CCCSc1ccc(Cl)cc1 [Compound 1, Sodium 4-(p-Chlorophenylthio)butyrate] | 10-15% | 30-40% | 6 | 55 | –
2 | O=C(O)CSc1ccc(Cl)cc1 [Compound 2, 2-(p-Chlorophenylthio)acetic acid] | – | – | 44 | 8 | –
3 | CC(=O)OCCCCSc1ccc(Cl)cc1 [Compound 3, 4-(p-Chlorophenylthio)butyl acetate] | – | – | 6.3 | 52 | –
4 | COCCCCSc1ccc(Cl)cc1 [Compound 4, 4-(p-Chlorophenylthio)butyl methyl ether] | – | – | 28 | 12 | –
5 | OCC(O)COc1ccc(Cl)cc1 (stereo not shown) [chlorphenesin, 3-p-chlorophenoxy-1,2-propanediol, reference compound] | – | – | 330 | 1 | inhibit histamine release from human leukocytes
